In patent US8623903B2, “Indolecarboxylic acid derivative having PGD2 receptor antagonistic activity” (Shionogi & Co., Ltd., priority 2005, dated 2014):

Key:
DP receptor [1] = target: T1, DP receptor (Homo sapiens (Human), UniProt Q13258); assay: cAMP assay with washed platelets (DP inhibitory activity in vitro); assay type: cell-based; conditions: 100 nM of PGD2, cAMP by HTRF, read-out: IC50 (50% DP-inhibitory concentration in the cAMP assay)
Description: 1) Preparation of Platelet and a Method of cAMP Assay
30 mL of peripheral blood was collected from a healthy volunteer using a syringe containing one ninth amount of 3.8% sodium citrate. After being centrifuged at 180 g for 10 minutes at room temperature, a supernatant was collected and used as Platelet Rich Plasma (PRP). The resulting PRP was washed with wash buffer and centrifuged three times (Washed Platelet: WP) and platelets were counted by a microcell counter. WP was added to a plate in amount of 1.5×10^8/assay and the plate was treated with 3-isobutyl-1-methylxanthin (IBMX; 0.5 mM) for 5 minutes. A reaction was initiated by adding 100 nM of PGD2 5 min after an addition of a test compound. The reaction was terminated with an addition of 1N hydrochloric acid after 2 minutes and the cells were destructed using 12% triton X-100. An amount of cAMP in the supernatant was assayed by Homogeneous Trangient Fluorescence (HTRF)

OVA asthma model of rat [2] = assay: OVA asthma model of rat: infiltration of inflammatory cells in bronchoalveolar washings; assay type: in vivo, Brown Norway (BN) Rats; conditions: BN rats, 10 mg/kg p.o. once a day for three days, total cell number in bronchoalveolar washings vs control group
Description: (§1) Brown Norway (BN) Rats were sensitized by i.p. administration of 0.1 mg/mL of ovalbumin (OVA) and 1 mg of aluminum hydroxide gel. A solution of 1% OVA was aerosolized by ultrasonic nebulizer (NE-U17) and the rats were subjected to inhalation exposure of the aerosol for 30 minutes in an exposing chamber 12, 19, 26 and 33 days after the sensitization. One hour before the 4th exposure of the antigen, compounds of the present invention were administered in a dose of 10 mg/kg p.o. once a day for three days consecutively. In a control group, 0.5% of methyl cellulose was administered in place of the compound of the present invention.
(§2) After the measurement of increased hyperresponsive airway was completed, bronchoalveoli of the rats were washed with 5 mL of saline three times. Total cell number in the washings was counted by a hemacytometer under light microscope, and inhibition rates of infiltration of inflammatory cells against the control group were calculated. Further, mucin in the airway lavage fluid was measured by ELISA method using jacalin, a mucin-binding lectin, and the inhibition rates of mucus-secretion against the control group were calculated.

OVA asthma model of rat [3] = assay: OVA asthma model of rat: mucus-secretion (mucin in airway lavage fluid, ELISA); assay type: in vivo, Brown Norway (BN) Rats; conditions: BN rats, 10 mg/kg p.o. once a day for three days, mucin in airway lavage fluid by ELISA vs control group
Description: as §1, §2

OVA asthma model of rat [4] = assay: OVA asthma model of rat: increased hyperresponsive airway (acetylcholine); assay type: in vivo, Brown Norway (BN) Rats; conditions: BN rats, 10 mg/kg p.o. once a day for three days, vs control group, AUC of acetylcholine response curve
Description: as §1
Under pentobarbital anesthesia (80 mg/kg, i.p.), acetylcholine (3.9, 7.8, 15.6, 31.3, 62.5, 125, 250 and 500 μg/kg) was injected to jugular vein of the rats successively from a lower dose at intervals of 5 minutes three days after the fourth exposure to the antigen, and immediate contractile reaction of airways (an increase of insufflation pressure) was measured by a modified method of Konnzett & Rössler. Inhibition rate of increased hyperresponsive airway against the control group was calculated based on area under the curve (AUC) obtained from concentration-response curve of acetylcholine.

DP receptor [5] = target: T1, DP receptor; assay: Receptor binding assay, [3H]-PGD2, platelet membrane
Description: 2) Receptor Binding Assay
A prepared WP was homogenated and a membrane fraction was collected with high-speed centrifugation. A compound of the present invention was added to the plate and [^3H]-PGD2 was also added. A platelet membrane, a protein concentration is 2 mg/mL, was added and mixed in the plate, and placed on ice for 2 hours. The reaction solution was transferred to a low protein-adsorptive filter and washed with a wash solution eight times using a cell harvester. After the final washing, water was removed sufficiently, and scintillator was added. DP inhibitory activity was investigated by measuring [^3H] by using Micro Beta.

T1 sequence (Q13258 whole entry): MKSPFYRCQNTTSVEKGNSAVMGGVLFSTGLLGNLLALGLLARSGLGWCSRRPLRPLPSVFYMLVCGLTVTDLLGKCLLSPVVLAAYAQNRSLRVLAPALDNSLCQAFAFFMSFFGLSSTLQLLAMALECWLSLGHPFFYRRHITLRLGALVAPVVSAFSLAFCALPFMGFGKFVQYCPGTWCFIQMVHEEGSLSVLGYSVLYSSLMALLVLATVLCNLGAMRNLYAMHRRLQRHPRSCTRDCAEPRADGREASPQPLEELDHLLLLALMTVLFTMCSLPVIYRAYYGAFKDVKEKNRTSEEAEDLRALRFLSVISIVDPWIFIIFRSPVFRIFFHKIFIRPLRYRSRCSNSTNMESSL

| SMILES | IC50 (DP receptor [1]) [nM] | inhibition rate (%) infiltration of inflammatory cells (OVA asthma model of rat [2]) [%] | inhibition rate (%) mucus-secretion (OVA asthma model of rat [3]) [%] | inhibition rate (%) airway hyperresponsiveness (OVA asthma model of rat [4]) [%] | Ki (DP receptor [5]) [nM] |
| --- | --- | --- | --- | --- | --- |
| CC(C)Oc1ccc(S(=O)(=O)N2CCC(n3cc(CC(=O)O)c4ccc(Cl)cc43)CC2)cc1 [Compound I-9] | 2 | – | – | – | – |
| CCOc1ccc(S(=O)(=O)N2CCC(n3cc(CC(=O)O)c4ccc(Cl)cc43)CC2)cc1 [Compound I-10] | 6.9 | – | – | – | – |
| CC(C)Oc1ccc(S(=O)(=O)N2CCC(n3cc(C(=O)O)c4ccccc43)CC2)cc1 [Compound I-23] | 1.6 | 79 | 72 | 46 | 1.4 |
| CC(C)Oc1ccc(S(=O)(=O)N2CCC(n3cc(CC(=O)O)c4ccc(F)cc43)CC2)cc1 [Compound I-16] | 1.3 | – | – | – | – |
| CC(C)Oc1ccc(S(=O)(=O)N2CC[C@@H](n3cc(CC(=O)O)c4ccc(Cl)cc43)C2)cc1 [Compound I-30] | 1.2 | – | – | – | 5.4 |
| CC(C)Oc1ccc(S(=O)(=O)N2CCC(n3cc(CC(=O)O)c4cc(Cl)ccc43)C2)cc1 (centres unmarked) [Compound I-7] | 1.8 | – | – | – | – |
| CCOc1ccc(S(=O)(=O)N2CCC(n3cc(CC(=O)O)c4cc(Cl)ccc43)C2)cc1 (centres unmarked) [Compound I-8] | 4.9 | – | – | – | – |
| CC(C)Oc1ccc(S(=O)(=O)N2CCC(n3cc(CC(=O)O)c4cc(Cl)ccc43)CC2)cc1 [Compound I-5] | 4.1 | – | – | – | 22 |
| CC(C)Oc1ccc(S(=O)(=O)N2CCC(n3cc(CC(=O)O)c4ccc(Cl)cc43)C2)cc1 (centres unmarked) [Compound I-11] | 4.9 | 56 | 30 | 77 | – |
| CC(C)Oc1ccc(S(=O)(=O)N2CC[C@@H](n3cc(CC(=O)O)c4ccc(F)cc43)C2)cc1 [Compound I-31] | 2.9 | – | – | – | 4.3 |
| CC(C)Oc1ccc(S(=O)(=O)N2CC[C@H](n3nc(CC(=O)O)c4cc(Cl)ccc43)C2)cc1 [Compound I-21] | 3 | – | – | – | – |
| CCOc1ccc(S(=O)(=O)N2CCC(n3cc(CC(=O)O)c4ccc(Cl)cc43)C2)cc1 (centres unmarked) [Compound I-12] | 6.9 | – | – | – | – |
| CC(C)Oc1ccc(S(=O)(=O)N2CC[C@@H](n3cc(C(=O)O)c4ccc(Cl)cc43)C2)cc1 [Compound I-32] | 7 | – | – | – | – |
| CCOc1ccc(S(=O)(=O)N2CCC(n3cc(CC(=O)O)c4cc(Cl)ccc43)CC2)cc1 [Compound I-6] | 4.8 | – | – | – | – |
| CC(C)Oc1ccc(S(=O)(=O)N2CC[C@@H](n3cc(CC(=O)O)c4ccccc43)C2)cc1 [Compound I-20] | 3.8 | – | – | – | – |
| CC(C)Oc1ccc(S(=O)(=O)N2CCC(n3cc(CC(=O)O)c4cc(F)ccc43)CC2)cc1 [Compound I-14] | 2.2 | – | – | – | 5.6 |
| CC(C)Oc1ccc(S(=O)(=O)N2CCC(n3cc(CC(=O)O)c4ccccc43)CC2)cc1 [Compound I-1] | 4.7 | 58 | 52 | 43 | 7.7 |
